Assay results: the supplement of paper PMC10307832

What was measured:
Test in all cases: relative viability (nuclei count vs DMSO), 5 days (fraction); higher = more cells survive
BMX-IN-1 + AZD7762 = compound: C=CC(=O)Nc1cc(-n2c(=O)ccc3cnc4ccc(-c5ccc(NS(C)(=O)=O)cc5)cc4c32)ccc1C [BMX-IN-1] + NC(=O)Nc1cc(-c2cccc(F)c2)sc1C(=O)N[C@H]1CCCNC1 [AZD7762] (partner 0.2 µM)
In short: (§1)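 Relative viability was taken as the ratio of nuclei in treated wells to nuclei in vehicle wells. Lung cancer cell lines in 1536-well plates received compounds by pin tool one day after seeding, either one drug alone or a fixed anchor-drug dose plus five library-drug doses (not always all listed) in √10 steps. Nuclei were counted on 4× images after 5 days of treatment, and values are medians of duplicate plates.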

BMX-IN-1 + Pictilisib = compound: C=CC(=O)Nc1cc(-n2c(=O)ccc3cnc4ccc(-c5ccc(NS(C)(=O)=O)cc5)cc4c32)ccc1C [BMX-IN-1] + CS(=O)(=O)N1CCN(Cc2cc3nc(-c4cccc5[nH]ncc45)nc(N4CCOCC4)c3s2)CC1 [Pictilisib] (partner 1 µM)
In short: as §1

Ibrutinib + Dasatinib = compound: C=CC(=O)N1CCC[C@@H](n2nc(-c3ccc(Oc4ccccc4)cc3)c3c(N)ncnc32)C1 [Ibrutinib] + Cc1nc(Nc2ncc(C(=O)Nc3c(C)cccc3Cl)s2)cc(N2CCN(CCO)CC2)n1 [Dasatinib] (partner 0.075 µM)
In short: as §1

BMX-IN-1 + OSI-027 = compound: C=CC(=O)Nc1cc(-n2c(=O)ccc3cnc4ccc(-c5ccc(NS(C)(=O)=O)cc5)cc4c32)ccc1C [BMX-IN-1] + COc1cccc2cc(-c3nc([C@H]4CC[C@H](C(=O)O)CC4)n4ncnc(N)c34)[nH]c12 [OSI-027] (partner 0.5 µM)
In short: as §1

Cell Line | relative viability (BMX-IN-1 + AZD7762; first compound 0.02 µM) | relative viability (BMX-IN-1 + AZD7762; first compound 2 µM) | relative viability (BMX-IN-1 + Pictilisib; first compound 0.02 µM) | relative viability (BMX-IN-1 + Pictilisib; first compound 0.2 µM) | relative viability (BMX-IN-1 + Pictilisib; first compound 0.6325 µM) | relative viability (BMX-IN-1 + Pictilisib; first compound 2 µM) | relative viability (Ibrutinib + Dasatinib; first compound 0.005 µM) | relative viability (Ibrutinib + Dasatinib; first compound 0.01581 µM) | relative viability (Ibrutinib + Dasatinib; first compound 0.05 µM) | relative viability (Ibrutinib + Dasatinib; first compound 0.1581 µM) | relative viability (Ibrutinib + Dasatinib; first compound 0.5 µM) | relative viability (BMX-IN-1 + OSI-027; first compound 0.02 µM) | relative viability (BMX-IN-1 + OSI-027; first compound 0.2 µM) | relative viability (BMX-IN-1 + OSI-027; first compound 0.6325 µM) | relative viability (BMX-IN-1 + OSI-027; first compound 2 µM) | relative viability (BMX-IN-1 + AZD7762; first compound 0.2 µM) | relative viability (BMX-IN-1 + AZD7762; first compound 0.6325 µM)
NCI-H1703 | 0.132 | 0.143 | 0.248 | 0.265 | 0.248 | 0.225 |  |  |  |  |  |  |  |  |  |  | 
IA-LM |  |  | 0.337 | 0.403 | 0.427 | 0.386 |  |  |  |  |  |  |  |  |  |  | 
NCI-H661 |  |  | 0.349 | 0.436 | 0.368 | 0.316 | 0.626 | 0.581 | 0.417 | 0.842 | 0.425 | 0.638 | 0.798 | 0.772 | 0.761 |  | 
NCI-H1623 |  |  |  |  |  |  | 0.604 | 0.515 | 0.461 | 0.316 | 0.244 | 0.42 | 0.456 | 0.528 | 0.409 |  | 
SK-LU-1 |  |  | 0.579 | 0.567 | 0.675 | 0.481 | 0.179 | 0.162 | 0.17 | 0.183 | 0.162 | 0.345 | 0.316 | 0.42 | 0.298 |  | 
NCI-H2228 |  |  | 0.578 | 0.471 | 0.443 | 0.432 | 0.584 |  | 0.553 | 0.5 | 0.428 | 0.595 | 0.673 | 0.789 | 0.529 |  | 
SW 1573 |  |  | 0.5 | 0.512 | 0.466 | 0.478 | 0.647 | 0.494 | 0.477 | 0.588 | 0.514 | 0.882 | 0.778 | 0.736 | 0.0649 |  | 
NCI-H2342 | 0.454 | 0.447 |  |  |  |  | 0.314 | 0.315 | 0.294 | 0.279 | 0.276 | 0.687 | 0.649 | 0.608 | 0.585 | 0.484 | 0.492
NCI-H520 |  |  | 0.376 | 0.299 | 0.304 | 0.278 | 0.192 |  | 0.183 | 0.237 | 0.132 | 0.253 | 0.238 | 0.279 | 0.282 |  | 
COR-L23 |  |  | 1.1 | 1.3 | 0.76 | 0.855 | 0.614 | 0.396 | 0.497 | 0.513 | 0.544 | 1.01 | 0.945 | 1.01 | 0.754 |  | 
NCI-H522 | 1.07 | 0.846 |  |  |  |  | 0.744 | 0.584 | 0.731 | 0.773 | 0.723 | 0.673 | 0.74 | 0.696 | 0.732 | 0.914 | 0.769
HCC-44 | 0.989 | 1.11 | 0.732 | 0.687 | 0.836 | 0.622 |  |  |  |  |  | 0.617 | 0.515 | 0.56 | 0.474 | 0.941 | 1.01
NCI-H1648 | 0.498 | 0.67 |  |  |  |  |  |  |  |  |  | 0.223 | 0.249 | 0.265 | 0.272 | 0.758 | 0.747
